In patent US20250289787A1, “HERBICIDAL 2-OXO-NICOTINIC ACID DERIVATIVES” (SYNGENTA CROP PROTECTION AG, priority 2022, published 2025):

Legend:
Assay type in all cases: in vivo
[1] = system: Ipomoea hederacea (IPOHE); experiment: Pre-emergence test, herbicidal damage; design: key: 5=81-100%; 4=61-80%; 3=41-60%; 2=21-40%; 1=1-20%; 0=no damage to the plant; -=not tested; settings: 1000 g/ha unless otherwise stated, evaluated after 13 days, five-point scale
[2] = system: Amaranthus palmeri (AMAPA); experiment: Pre-emergence test, herbicidal damage; settings: 1000 g/ha unless otherwise stated, evaluated after 13 days, five-point scale
Zea mays (ZEAMX) [3] = experiment: Pre-emergence test, herbicidal damage; design: key: 5=81-100%; 4=61-80%; 3=41-60%; 2=21-40%; 1=1-20%; 0=no damage to the plant; -=not tested; settings: 1000 g/ha unless otherwise stated, evaluated after 13 days, five-point scale
[4] = system: Amaranthus palmeri (AMAPA); experiment: Post-emergence test, herbicidal damage; design: key: 5=81-100%; 4=61-80%; 3=41-60%; 2=21-40%; 1=1-20%; 0=no damage to the plant; -=not tested; settings: sprayed after 8 days cultivation, 1000 g/ha unless otherwise stated, evaluated after 13 days, five-point scale
How it was run: (§1)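 In the post-emergence test, pot-grown plants were sprayed 8 days after sowing with compound in acetone/water (50:50) containing 0.5% Tween 20, at 1000 g/ha unless stated otherwise. Plants were kept in a glasshouse at 24° C./16° C., 14 hours light and 65% humidity. Damage was scored after 13 days on a 0–5 scale (5=81-100%).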

[5] = system: Amaranthus retoflexus (AMARE); experiment: Post-emergence test, herbicidal damage; design: key: 5=81-100%; 4=61-80%; 3=41-60%; 2=21-40%; 1=1-20%; 0=no damage to the plant; -=not tested; settings: sprayed after 8 days cultivation, 1000 g/ha unless otherwise stated, evaluated after 13 days, five-point scale
How it was run: as §1

Setaria faberi (SETFA) [6] = experiment: Post-emergence test, herbicidal damage; design: key: 5=81-100%; 4=61-80%; 3=41-60%; 2=21-40%; 1=1-20%; 0=no damage to the plant; -=not tested; settings: sprayed after 8 days cultivation, 1000 g/ha unless otherwise stated, evaluated after 13 days, five-point scale
How it was run: as §1

[7] = system: Ipomoea hederacea (IPOHE); experiment: Post-emergence test, herbicidal damage; design: key: 5=81-100%; 4=61-80%; 3=41-60%; 2=21-40%; 1=1-20%; 0=no damage to the plant; -=not tested; settings: sprayed after 8 days cultivation, 1000 g/ha unless otherwise stated, evaluated after 13 days, five-point scale
How it was run: as §1

Zea mays (ZEAMX) [8] = experiment: Post-emergence test, herbicidal damage; design: key: 5=81-100%; 4=61-80%; 3=41-60%; 2=21-40%; 1=1-20%; 0=no damage to the plant; -=not tested; settings: sprayed after 8 days cultivation, 1000 g/ha unless otherwise stated, evaluated after 13 days, five-point scale
How it was run: as §1

[9] = system: Echinochloa crus-galli (ECHCG); experiment: Post-emergence test, herbicidal damage; design: key: 5=81-100%; 4=61-80%; 3=41-60%; 2=21-40%; 1=1-20%; 0=no damage to the plant; -=not tested; settings: sprayed after 8 days cultivation, 1000 g/ha unless otherwise stated, evaluated after 13 days, five-point scale
How it was run: as §1

[10] = system: Echinochloa crus-galli (ECHCG); experiment: Pre-emergence test, herbicidal damage; settings: 1000 g/ha unless otherwise stated, evaluated after 13 days, five-point scale
Setaria faberi (SETFA) [11] = experiment: Pre-emergence test, herbicidal damage; design: key: 5=81-100%; 4=61-80%; 3=41-60%; 2=21-40%; 1=1-20%; 0=no damage to the plant; -=not tested; settings: 1000 g/ha unless otherwise stated, evaluated after 13 days, five-point scale
[12] = system: Amaranthus retoflexus (AMARE); experiment: Pre-emergence test, herbicidal damage; settings: 1000 g/ha unless otherwise stated, evaluated after 13 days, five-point scale

Cc1c(O)c(-c2ccc(Cl)c(Cl)c2)c(C(=O)O)c(=O)n1-c1ccc(Cl)cc1F [Compound 42, 1-(4-chloro-2-fluoro-phenyl)-4-(3,4-dichlorophenyl)-5-hydroxy-6-methyl-2-oxo-pyridine-3-carboxylic acid]
percentage damage caused to the plant, IPOHE [1]: 0 | percentage damage caused to the plant, AMAPA [2]: 2 (2=21-40%) | percentage damage caused to the plant, ZEAMX (Zea mays (ZEAMX) [3]): 0 | percentage damage caused to the plant, AMAPA [4]: 2 (2=21-40%) | percentage damage caused to the plant, AMARE [5]: 2 (2=21-40%) | percentage damage caused to the plant, SEFTA (Setaria faberi (SETFA) [6]): 0 | percentage damage caused to the plant, IPOHE [7]: 1 (1=1-20%) | percentage damage caused to the plant, ZEAMX (Zea mays (ZEAMX) [8]): 0 | percentage damage caused to the plant, ECHCG [9]: 0 | percentage damage caused to the plant, ECHCG [10]: 1 (1=1-20%) | percentage damage caused to the plant, SEFTA (Setaria faberi (SETFA) [11]): 0 | percentage damage caused to the plant, AMARE [12]: 2 (2=21-40%)
